Assay [1] concerns the target CDK17/Cyclin-Y (Homo sapiens) (UniProt Q00537+Q8ND76). Nature of the assay: Selectivity interaction (Kinase panel (Z-LYTE Assay)) EUB0001632a CDK17. The class given is protein-complex assay. Particulars: at 10 µM.
In assay [2] the target is Mitogen-activated protein kinase 8 (Homo sapiens, UniProt P45983). Nature of the assay: Selectivity interaction (KinomeScan (DiscoverX)) EUB0001619a MAPK8. To be noted: at 1 µM.
Assay [3] has as its target Hepatocyte growth factor-like protein (Homo sapiens) (UniProt P26927). Particulars: at 10 µM.
Assay [4] addresses T1, Receptor-interacting serine/threonine-protein kinase 1 (Homo sapiens) (UniProt Q13546).
T1 sequence (whole entry): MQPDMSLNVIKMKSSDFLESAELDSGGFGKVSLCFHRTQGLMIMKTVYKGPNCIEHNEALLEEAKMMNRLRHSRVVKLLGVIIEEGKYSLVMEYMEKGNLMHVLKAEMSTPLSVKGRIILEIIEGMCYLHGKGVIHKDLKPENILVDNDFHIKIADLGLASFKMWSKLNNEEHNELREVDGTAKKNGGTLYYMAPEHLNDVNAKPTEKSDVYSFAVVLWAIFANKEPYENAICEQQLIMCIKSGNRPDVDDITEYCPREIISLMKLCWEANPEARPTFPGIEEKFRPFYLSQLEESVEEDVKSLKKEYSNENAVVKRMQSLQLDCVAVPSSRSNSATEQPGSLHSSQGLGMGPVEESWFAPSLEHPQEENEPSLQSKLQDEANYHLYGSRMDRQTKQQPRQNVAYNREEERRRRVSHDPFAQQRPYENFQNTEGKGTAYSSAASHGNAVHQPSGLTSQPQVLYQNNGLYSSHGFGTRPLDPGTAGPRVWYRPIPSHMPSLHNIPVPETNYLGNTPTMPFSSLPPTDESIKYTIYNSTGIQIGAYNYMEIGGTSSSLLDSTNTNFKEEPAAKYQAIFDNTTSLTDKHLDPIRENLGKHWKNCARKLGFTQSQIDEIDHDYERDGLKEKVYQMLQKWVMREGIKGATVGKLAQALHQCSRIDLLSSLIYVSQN
Nature of the assay: Selectivity interaction (KinomeScan (DiscoverX)) EUB0000666a RIPK1. Particulars: at 10 µM.

The target in assay [5] is SRSF protein kinase 3 (Homo sapiens) (UniProt Q9UPE1). Nature of the assay: Selectivity interaction (Kinase panel (Invitrogen)) EUB0000639a SRPK3. Particulars: at 200 nM.
In assay [6] the target is T2, EKC/KEOPS complex subunit TP53RK (Homo sapiens) (UniProt Q96S44).
T2 sequence (whole entry): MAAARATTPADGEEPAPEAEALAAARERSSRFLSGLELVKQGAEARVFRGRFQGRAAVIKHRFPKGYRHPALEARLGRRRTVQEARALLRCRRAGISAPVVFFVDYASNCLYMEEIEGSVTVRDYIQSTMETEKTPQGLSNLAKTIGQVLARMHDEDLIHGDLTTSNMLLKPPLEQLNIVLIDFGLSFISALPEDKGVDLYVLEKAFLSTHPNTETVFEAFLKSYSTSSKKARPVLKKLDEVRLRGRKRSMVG
Nature of the assay: Selectivity interaction (ActivX KiNativ screen (kinase selectivity in THP-1 cell lysates)) EUB0000639a TP53RK. The class given is subcellular. To be noted: lysate.

The target of assay [7] is Mitogen-activated protein kinase 14 (Homo sapiens, UniProt Q16539). Nature of the assay: Selectivity interaction (ActivX KiNativ screen (kinase selectivity in THP-1 cell lysates)) EUB0000639a MAPK14. The class given is subcellular. Particulars: lysate, at 0.2 µM.
Assay [8] addresses Tyrosine-protein kinase Srms (Homo sapiens) (UniProt Q9H3Y6). As to the kind of experiment: Selectivity interaction (Ambit KINOMEscan and KiNATiv profiling in Jurkat cells) EUB0000090b SRMS. The class given is cell-based. Particulars: at 1 µM.
The test system of assay [9] is Phosphatidylinositol 4,5-bisphosphate 3-kinase catalytic subunit alpha isoform (Homo sapiens), P42336 [C420R]. As to the kind of experiment: (§1) Selectivity interaction (KinomeScan (DiscoverX)) EUB0001049a PIK3CA. To be noted: at 1 µM.
Assay [10] deals with Phosphatidylinositol 4,5-bisphosphate 3-kinase catalytic subunit alpha isoform (Homo sapiens), P42336 [E545K]. The assay is described as §1. Particulars: at 1 µM.
Assay [11] has as its system Phosphatidylinositol 4,5-bisphosphate 3-kinase catalytic subunit alpha isoform (Homo sapiens), P42336 [M1043I]. The description is as §1. Particulars: at 1 µM.
Assay [12] concerns Phosphatidylinositol 4,5-bisphosphate 3-kinase catalytic subunit alpha isoform (Homo sapiens), P42336 [H1047L]. The assay is described as §1. To be noted: at 1 µM.
For assay [13], the system named is Phosphatidylinositol 4,5-bisphosphate 3-kinase catalytic subunit alpha isoform (Homo sapiens), P42336 [H1047Y]. Described as §1. Particulars: at 1 µM.
In assay [14] the test system is Phosphatidylinositol 4,5-bisphosphate 3-kinase catalytic subunit alpha isoform (Homo sapiens), P42336 [Q546K]. The assay is described as §1. To be noted: at 1 µM.
The target in assay [15] is Phosphatidylinositol 4,5-bisphosphate 3-kinase catalytic subunit alpha isoform (Homo sapiens) (UniProt P42336). The assay is described as §1. To be noted: at 1 µM.
For assay [16], the system named is Phosphatidylinositol 4,5-bisphosphate 3-kinase catalytic subunit alpha isoform (Homo sapiens), P42336 [I800L]. The assay is described as §1. Particulars: at 1 µM.
For assay [17], the system named is Phosphatidylinositol 4,5-bisphosphate 3-kinase catalytic subunit alpha isoform (Homo sapiens), P42336 [E542K]. Described as §1. Particulars: at 1 µM.
Assay [18] concerns Phosphatidylinositol 4,5-bisphosphate 3-kinase catalytic subunit alpha isoform (Homo sapiens), P42336 [E545A]. The description is as §1. Particulars: at 1 µM.
In assay [19] the target is T3, Inhibitor of nuclear factor kappa-B kinase subunit alpha (Homo sapiens) (UniProt O15111).
T3 sequence (whole entry): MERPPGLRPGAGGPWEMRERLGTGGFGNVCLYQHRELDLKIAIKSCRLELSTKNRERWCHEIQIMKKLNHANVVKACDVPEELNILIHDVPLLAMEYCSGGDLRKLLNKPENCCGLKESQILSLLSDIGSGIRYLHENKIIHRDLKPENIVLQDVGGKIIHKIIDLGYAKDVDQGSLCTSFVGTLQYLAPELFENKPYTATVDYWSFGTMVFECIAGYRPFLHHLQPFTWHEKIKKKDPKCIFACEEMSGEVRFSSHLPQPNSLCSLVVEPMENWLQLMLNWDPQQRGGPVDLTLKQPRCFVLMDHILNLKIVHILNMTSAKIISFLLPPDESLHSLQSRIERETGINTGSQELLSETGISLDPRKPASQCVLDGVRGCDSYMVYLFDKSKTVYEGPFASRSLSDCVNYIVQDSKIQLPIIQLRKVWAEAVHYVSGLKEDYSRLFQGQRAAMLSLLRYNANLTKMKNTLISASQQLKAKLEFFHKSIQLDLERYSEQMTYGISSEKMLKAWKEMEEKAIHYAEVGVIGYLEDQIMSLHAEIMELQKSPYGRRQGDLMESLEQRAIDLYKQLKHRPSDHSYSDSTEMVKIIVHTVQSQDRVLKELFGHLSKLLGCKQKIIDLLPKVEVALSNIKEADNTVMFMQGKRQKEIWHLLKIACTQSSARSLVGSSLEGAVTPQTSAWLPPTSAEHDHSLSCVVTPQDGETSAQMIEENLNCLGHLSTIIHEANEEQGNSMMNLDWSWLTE
To be noted: at 1 µM.

Assay [20] has as its target Mitogen-activated protein kinase kinase kinase 9 (Homo sapiens) (UniProt P80192). As to the kind of experiment: Selectivity interaction (KinomeScan (DiscoverX)) EUB0000229b MAP3K9. Particulars: at 10 µM.

Phosphatidylinositol 4,5-bisphosphate 3-kinase catalytic subunit alpha isoform (Homo sapiens), P42336 [E545K], sequence (P42336 whole entry E545K, canonical isoform): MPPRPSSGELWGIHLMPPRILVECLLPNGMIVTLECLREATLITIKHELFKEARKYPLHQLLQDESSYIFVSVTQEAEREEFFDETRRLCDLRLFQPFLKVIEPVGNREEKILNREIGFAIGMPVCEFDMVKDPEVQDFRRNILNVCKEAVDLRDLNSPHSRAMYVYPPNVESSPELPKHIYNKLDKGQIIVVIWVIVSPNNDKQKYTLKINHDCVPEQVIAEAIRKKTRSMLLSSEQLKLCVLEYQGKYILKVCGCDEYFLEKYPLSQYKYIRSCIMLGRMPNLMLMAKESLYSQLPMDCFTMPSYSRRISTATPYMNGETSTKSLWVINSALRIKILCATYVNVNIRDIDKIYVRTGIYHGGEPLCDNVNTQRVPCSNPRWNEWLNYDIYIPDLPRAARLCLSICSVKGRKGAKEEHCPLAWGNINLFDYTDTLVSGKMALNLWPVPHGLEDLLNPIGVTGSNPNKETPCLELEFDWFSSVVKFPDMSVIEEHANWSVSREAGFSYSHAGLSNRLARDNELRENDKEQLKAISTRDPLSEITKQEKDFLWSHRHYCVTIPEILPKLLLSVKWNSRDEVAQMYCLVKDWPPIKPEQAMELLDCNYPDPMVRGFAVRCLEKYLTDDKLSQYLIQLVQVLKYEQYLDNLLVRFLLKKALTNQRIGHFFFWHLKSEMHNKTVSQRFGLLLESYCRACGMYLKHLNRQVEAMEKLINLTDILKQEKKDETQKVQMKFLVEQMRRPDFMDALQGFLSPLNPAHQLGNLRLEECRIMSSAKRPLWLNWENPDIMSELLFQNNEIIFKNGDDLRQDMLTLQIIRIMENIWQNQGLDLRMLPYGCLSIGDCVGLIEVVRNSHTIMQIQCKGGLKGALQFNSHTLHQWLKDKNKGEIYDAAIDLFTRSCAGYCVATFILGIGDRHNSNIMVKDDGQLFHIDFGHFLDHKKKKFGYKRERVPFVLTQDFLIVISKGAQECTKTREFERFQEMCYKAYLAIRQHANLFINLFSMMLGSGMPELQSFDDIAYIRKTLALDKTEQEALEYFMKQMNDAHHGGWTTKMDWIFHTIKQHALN
Mitogen-activated protein kinase 8, sequence (P45983 whole entry): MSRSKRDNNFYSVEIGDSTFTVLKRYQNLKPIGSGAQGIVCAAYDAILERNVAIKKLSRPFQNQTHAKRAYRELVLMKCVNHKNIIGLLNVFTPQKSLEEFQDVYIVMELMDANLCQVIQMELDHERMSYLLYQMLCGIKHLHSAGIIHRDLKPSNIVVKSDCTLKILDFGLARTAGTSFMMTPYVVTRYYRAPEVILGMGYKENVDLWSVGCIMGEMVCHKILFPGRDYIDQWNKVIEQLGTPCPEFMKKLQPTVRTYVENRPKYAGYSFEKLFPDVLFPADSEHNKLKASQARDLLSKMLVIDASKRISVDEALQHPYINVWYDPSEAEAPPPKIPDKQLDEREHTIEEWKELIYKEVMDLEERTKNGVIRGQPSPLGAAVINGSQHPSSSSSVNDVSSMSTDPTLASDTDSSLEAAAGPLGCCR
Phosphatidylinositol 4,5-bisphosphate 3-kinase catalytic subunit alpha isoform (Homo sapiens), P42336 [H1047L], sequence (P42336 whole entry H1047L, canonical isoform): as the sequence (P42336 whole entry E545K, canonical isoform) above, with K545E, H1047L counted along it
Phosphatidylinositol 4,5-bisphosphate 3-kinase catalytic subunit alpha isoform (Homo sapiens), P42336 [E542K], sequence (P42336 whole entry E542K, canonical isoform): as the sequence (P42336 whole entry E545K, canonical isoform) above, with E542K, K545E counted along it
Phosphatidylinositol 4,5-bisphosphate 3-kinase catalytic subunit alpha isoform (Homo sapiens), P42336 [M1043I], sequence (P42336 whole entry M1043I, canonical isoform): as the sequence (P42336 whole entry E545K, canonical isoform) above, with K545E, M1043I counted along it
Mitogen-activated protein kinase 14, sequence (Q16539 whole entry): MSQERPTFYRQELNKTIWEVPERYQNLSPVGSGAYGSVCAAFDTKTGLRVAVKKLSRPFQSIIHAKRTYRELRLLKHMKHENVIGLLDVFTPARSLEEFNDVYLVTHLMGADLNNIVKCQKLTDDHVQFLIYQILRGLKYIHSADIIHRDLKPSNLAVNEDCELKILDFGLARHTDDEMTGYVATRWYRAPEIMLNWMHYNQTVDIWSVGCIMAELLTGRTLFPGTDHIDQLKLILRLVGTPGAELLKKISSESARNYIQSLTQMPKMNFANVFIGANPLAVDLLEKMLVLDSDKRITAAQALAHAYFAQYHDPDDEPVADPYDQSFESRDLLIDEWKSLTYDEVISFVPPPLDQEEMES

Compound `Cn1cc(-n2cnc3c(NCc4nc5cc(Cl)c(Cl)cc5[nH]4)nc(N4CCOCC4)nc32)cn1` displayed a % of control in assay [1] of 8.66%.

As for `N#Cc1cccc(-c2c[nH]c3ncnc(N4CCOCC4)c23)c1`, the % of control in assay [2] was 62%.

Compound `CCN(CC)CCCCNc1ncc2cc(-c3cc(OC)cc(OC)c3)c(NC(=O)NC(C)(C)C)nc2n1` showed a % of control in assay [3] of 100%.

As for `O=C(NOC[C@H](O)CO)c1ccc(F)c(F)c1Nc1ccc(I)cc1F`, the % of control in [4] stood at 85%.

As to `CC[C@@H]1[C@H](F)C(=O)N[C@@H]1COc1nccc2cc(C(N)=O)c(OC)cc12` [ZIMLOVISERTIB], the % of inhibition came out at 8.65% in assay [5]; 13.5% in [6] (at 0.01 µM); 5.2% in assay [6] (at 0.04 µM); 15.3% in [6] (at 0.2 µM); 30.7% in assay [6] (at 1 µM); 60.6% in assay [6] (at 5 µM). Further, the % of inhibition in assay [7] is -1.8%.

In [8], `CN(C)C/C=C/C(=O)Nc1ccc(C(=O)N2CCCC(Nc3ncc(Cl)c(-c4c[nH]c5ccccc45)n3)C2)cc1` (centres undefined) gave a % of control of 99%.

For the compound `COc1cc(Nc2nc(C)cc(-c3cnn4nc(OC)ccc34)n2)cc(C(F)(F)F)c1`, the % of control in [9] worked out at 76%; in assay [10], 71%; in assay [11], 100%; in assay [12], 100%; in [13] it was 85%; in [14], 66%. Further, the % of control in [15] worked out at 100%; in [16], 46%; in assay [17], 59%; in assay [18] it was 77%.

Regarding `Cc1ccc(-c2ccc3c(ccc4sc5c(c43)NC[C@@H](C)NC5=O)n2)cn1`, in assay [19], the % of inhibition was -5%.

In assay [20], `COc1cc(N(C)c2ccnc3ccc(C(F)(F)F)cc23)cc(OC)c1OC` showed a % binding of 88%.

Values taken from ChEMBL document CHEMBL5465560, “Selectivity Literature for EUbOPEN Chemogenomic Library” (2024).
